Tests used:
LC3 = assay: Western blot of LC3 cleavage (autophagy); assay type: cell-based, human; conditions: U2OS cells, concentration-dependent
Procedure: YW3-56 induces cell death by autophagy, a cell death process in which cellular proteins and organelles are degraded by fusion with lysosomes. Cleavage of LC3-I to generate a fast migrating isoform LC3-II is a characteristic autophagy event. LC3 cleavage is induced after YW3-56 treatment in a concentration-dependent manner as shown in the Western blot in FIG. 6. Western blot and immunostaining was performed essentially as described in Li, P. et al., Oncogene 29 (21), 3153-3162 (2010). Antibodies used in Western blot were anti-p53 (Sigma), anti-PAD4, anti-p21 (Sigma), anti-PUMA (Calbiochem), anti-SESN2 (Abeam), anti-p70S6K (Cell Signaling), anti-p70S6K-[…] (Cell Signaling), anti-LC3 (Cell Signaling) and anti-β-actin (Sigma) at appropriate dilutions. Anti-LC3B antibody (Cell Signaling) was used for immunostaining. DNA was stained by the DNA dye Hoechst.

PAD4 = PAD4 (Homo sapiens (Human), UniProt Q9UM07); assay: PAD4 enzyme activity colorimetric assay (citrullination of BAEE); assay type: biochemical; conditions: 0.2 μg PAD4, 5 mM BAEE, 37° C.
Sequence of PAD4 (Q9UM07 whole entry, species assumed): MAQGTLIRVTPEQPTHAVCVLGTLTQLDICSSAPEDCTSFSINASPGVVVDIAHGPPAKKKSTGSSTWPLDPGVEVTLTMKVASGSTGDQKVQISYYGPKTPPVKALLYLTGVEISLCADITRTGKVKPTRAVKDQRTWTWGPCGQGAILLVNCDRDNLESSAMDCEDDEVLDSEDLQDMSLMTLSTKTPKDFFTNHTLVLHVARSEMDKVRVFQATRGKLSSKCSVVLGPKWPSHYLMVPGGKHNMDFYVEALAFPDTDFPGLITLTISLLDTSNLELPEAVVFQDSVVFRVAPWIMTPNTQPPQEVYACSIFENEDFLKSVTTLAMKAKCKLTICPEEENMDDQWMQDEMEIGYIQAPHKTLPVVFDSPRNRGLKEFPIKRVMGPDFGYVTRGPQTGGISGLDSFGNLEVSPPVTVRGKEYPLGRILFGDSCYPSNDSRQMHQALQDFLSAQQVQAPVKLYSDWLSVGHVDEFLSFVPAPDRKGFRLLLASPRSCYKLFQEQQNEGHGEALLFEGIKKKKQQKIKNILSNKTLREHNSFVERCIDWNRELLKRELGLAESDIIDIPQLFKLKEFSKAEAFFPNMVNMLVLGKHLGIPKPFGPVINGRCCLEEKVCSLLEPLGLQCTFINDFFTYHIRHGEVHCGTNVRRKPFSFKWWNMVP
Procedure: PAD4 enzyme activity assays are conducted to determine PAD4 inhibitory activity. PAD4 inhibition efficacy of the inhibitors is determined using a colorimetric assay for citrullination production.
The inhibition efficacy of PAD4 inhibitors were determined by colorimetric measurement of citrulline generated by PAD4 catalyzed citrullination of BAEE. 0.2 μg PAD4 was pre-incubated with inhibitors in 100 μl buffer containing 50 mM Tris-HCl pH7.6, 5 mM CaCl2, 2 mM DTT for 0.5 hr at 37° C. The reaction was started by the addition of BAEE to 5 mM and halted 1.5 hr later with the addition of 25 μl 5 M HClO4. Then the samples were briefly centrifuged at 12000 rpm for 2 min at 4° C. and the supernatant (120 μl) were assayed for citrulline by mixing with 120 μl reagent A (0.5% w/v diacetyl monoxime and 15% w/v NaCl in water) and 240 μl reagent B (1% w/v antipyrine, 0.15% w/v ferric chloride, 25% v/v H2SO4 and 25% v/v H3PO4). The mixtures were boiled for 15 min and cooled to room temperature in ice bath. The absorbance of the reagent mixtures at 464 nm was measured by Thermo BioMate™ 3 spectrophotometer. Efficacies of inhibitors are indicated as relative PAD4 citrullination activity by normalizing the PAD4 activity without inhibitor treatment to 100%.

p53 and its target genes = assay: RT-qPCR of p53 and its target genes in S180 cells; assay type: cell-based, mouse; conditions: concentration dependent
Procedure: RNA was extracted using RNeasy Mini Kit (Qiagen) per manufacturer's instructions. 1 μg RNA was reverse transcribed into cDNA using qScript cDNA SuperMix (Quanta Biosciences) per manufacturer's instructions. Quantitative PCR was performed using SYBR Green SuperMix (Quanta Biosciences) in StepOnePlus Real-Time PCR System (Applied Biosystems). FIG. 10 is a graph showing p53 and its target gene expression induced in S180 cells by YW3-56 in a concentration dependent manner.

U2OS cells = assay: Phase contrast microscopy of U2OS cell growth and morphology; assay type: cell-based, human; conditions: 0-16 μM, 24 hours
Procedure: Cell growth and morphology changes of cells treated with compounds of the present invention are analyzed using phase contrast microscopy.
A VistaVision invert microscope (VWR Inc.) equipped with a Spot Insight digital camera (NDS, Inc.) and a 10× phase contrast lens were used to analyze cell growth and morphology in phase contrast microscopy analyses.
In this example, U2OS are treated with […] YW3-56 for 24 hours.

[1] = Three-month YW3-56 treatment of nude mice: body and vital organ size; assay type: in vivo, mouse; conditions: 10 mg/kg, three months
Procedure: FIGS. 11a and 11b show results of the effect of long term YW3-56 treatment in mice. A pair of nude mice is mock injected or injected with YW3-56 for three months. RT-qPCR analyses of p53 and its target gene mRNA levels in control and YW3-56 treated mice. […] However, these changes are at low levels and no clear change in liver weight and morphology is observed.
A three-month YW3-56 treatment including daily injection of YW3-56 at 10 mg/kg body weight in a pair of nude mice is performed and the size of mouse body and vital organs is not altered after YW3-56 treatment as shown in FIG. 13.

[2] = system: Sesn2 promoter (+733 position); assay: ChIP analysis at the sestrin2 promoter in U2OS cells; assay type: cell-based, human; conditions: 8 μM, 8 hr
Procedure: Chromatin immunoprecipitation experiments are performed to test if p53 and histone Arg modifications directly regulate Sesn2 gene promoter. ChIP experiments were carried out essentially as described in Li, P. et al., Mol. Cell Biol., 28 (15), 4745-4758 (2008). Antibodies used in ChIP were: anti-p53 (Sigma), anti-PAD4, anti-H3Cit (Abeam), anti-H3R17Me (Abeam). Multiple pairs of primers spanning different regions of Sesn2 are designed to identify a p53 binding site at the Sesn2 gene. p53 binding is relatively […] at the +733 position in untreated U2OS cells, while its binding to this site is dramatically elevated after DNA damage induced by UV irradiation. After 8 hr YW3-56 treatment, p53 binding at the +733 position of Sesn2 is increased >4-fold with a concomitant increase of histone H3 Arg17 methylation (H3R17Me) (FIG. 14G, upper panel). In contrast, after YW3-56 treatment, a decrease in PAD4 binding and histone H3 citrullination (H3Cit) at the +733 position is consistently detected. ChIP results support a model in which p53 associates with while PAD4 dissociates from the Sesn2 promoter after YW3-56 treatment, allowing a decrease in H3Cit and an increase in H3R17Me to facilitate Sesn2 expression.
FIG. 14G, ChIP analyses of p53 and PAD4 association as well as histone H3R17Me and H3Cit modifications at the sestrin2 promoter before and after YW3-56 treatment at 8 μM for 8 hr. […]

- IC50 (PAD4): 1000 to 5000 nM
- size of mouse body and vital organs [1]: not altered
SMILES: CN(C)c1ccc2cc(C(=O)N[C@@H](CCCNC(=N)CCl)C(=O)NCc3ccccc3)ccc2c1 [YW3-56]
- LC3 cleavage (LC3): induced
- expression of p53 and its target genes including SESN1 and SESN2 (p53 and its target genes): induced the expression
- U2OS cell density in culture (U2OS cells): decreases U2OS cell density
- PAD4 binding and histone H3 citrullination (H3Cit) at the +733 position [2]: decrease
- p53 binding at the +733 position of Sesn2, increase [2]: > 4 fold

From patent publication US8969333B2, “Therapeutic compositions and methods” (The Penn State Research Foundation, priority 2010, dated 2015)
